Here are results for 36 compounds from US11498921B1, “Pyrimidine or pyridine compounds, preparation method therefor and pharmaceutical uses thereof” (INVENTISBIO CO., LTD., priority 2014, dated 2022).

Broadly, the IC50 is the concentration at which inhibition is half-maximal. Read a low IC50 as higher potency.

Assay type in all cases: cell-based
The test system of assay [1] is NCI-H1975 cells (T790M and L858R EGFR mutations). The experiment in a line: Cell growth inhibition (Cell Titer-Glo), NCI-H1975. The settings on record: Homo sapiens, 72 hours drug treatment, 0.03 nM to 100 nM. On the procedure:
(§1) Experiment of Cell Growth Inhibition
(§2) The LoVo cell line is a wild-type EGFR human colon adenocarcinoma cell, and is grown in F-12K medium (GIBCO) containing 10% FBS. NCI-H2073 cell line is a wild-type EGFR human non-small cell lung cancer cell and grown in ACL-4 medium containing 10% FBS. The growth rate of NCI-H1975, LoVo and NCI-H2073 cells was detected by Cell Titer-Glo luminescence activity assay (Promega #G7572).
(§3) Briefly, trypsin was used for digesting cells in the logarithmic growth phase. 96-well plates were seeded with 50,000 Lovo or NCI-H2073 cells, 2500-3000 NCI-H1975 cells per well and provided with blank control wells containing only nutrient solution without inoculated cell, and the plates were incubated in a humidified incubator with 5% CO2 at 37° C. […] The concentration of test drug in NCI-H1975 cells was from 0.03 nM to 100 nM, and that in LoVo and NCI-H2073 cells was from 3 nM to 10 μM. The cell culture medium containing the different compounds was then added to a 96-well cell plate in which one cell control well comprising cell culture medium only containing DMSO was provided. After a drug treatment for 72 hours, the cell plates were removed from the incubator and allowed to stand at room temperature for 30 minutes. Next, Cell Titer-Glo reagent was added to the wells and the 96-well cell plate was shaken at room temperature for 10 minutes to induce cell lysis. The 96-well cell plate was placed on the bench for 2 minutes to stabilize the luminescence signal. Finally, the 96-well cell plate was placed in an EnVision Multi-labeled Microplate Reader (PerkinElmer), and the signal was read with an integral time of 0.5 seconds.
(§4) Formula: Percentage of cell growth inhibition %=(maximum signal−compound signal)/(maximum signal−minimum signal)*100%
(§5) The maximal signal was obtained from the cell control well which were treated with the DMSO solution having no any compound;
(§6) The compound signal was obtained from the drug-treated cell wells to which the compound was added;
(§7) The minimum signal was obtained from a blank control well to which no cells and only nutrient solution was added.
(In general: Cellular ATP, detected with luciferase, serves as a proxy for viable cell number.)

For assay [2], the system named is LoVo cells (wild-type EGFR human colon adenocarcinoma). The assay is described as follows: Cell growth inhibition (Cell Titer-Glo), LoVo. The settings on record: 72 hours drug treatment, 3 nM to 10 μM. On the procedure:
as §1, §2, §3, §4, §5, §6, §7

Assay [3] has as its system NCI-H2073 cells (wild-type EGFR human non-small cell lung cancer). The assay is described as follows: Cell growth inhibition (Cell Titer-Glo), NCI-H2073. To be noted: 72 hours drug treatment, 3 nM to 10 μM. Here is the method:
as §1
as §2, with “The compounds that were preferentially targeted for EGFR targeting certain mutations and relatively weak in wild-type EGFR were identified by determining the growth of cells. The NCI-H1975 cell line is a human non-small cell lung cancer cell containing T790M and L858R EGFR mutations, and the cell is grown in RPMI-1640 medium (GIBCO) containing 10% fetal bovine serum (FBS). The LoVo” for “The LoVo”
Briefly, trypsin was used for digesting cells in the logarithmic growth phase. 96-well plates were seeded with 50,000 Lovo or NCI-H2073 cells, 2500-3000 NCI-H1975 cells per well and provided with blank control wells containing only nutrient solution without inoculated cell, and the plates were incubated in a humidified incubator with 5% CO2 at 37° C. After 24 hours, the DMSO solution of the different compounds was diluted with a cell culture medium at 3.16 times per time to eight different concentrations from high to low levels. The concentration of test drug in NCI-H1975 cells was from 0.03 nM to 100 nM, and that in LoVo and NCI-H2073 cells was from 3 nM to 10 μM. The cell culture medium containing the different compounds was then added to a 96-well cell plate in which one cell control well comprising cell culture medium only containing DMSO was provided. After a drug treatment for 72 hours, the cell plates were removed from the incubator and allowed to stand at room temperature for 30 minutes. Next, Cell Titer-Glo reagent was added to the wells and the 96-well cell plate was shaken at room temperature for 10 minutes to induce cell lysis. The 96-well cell plate was placed on the bench for 2 minutes to stabilize the luminescence signal. Finally, the 96-well cell plate was placed in an EnVision Multi-labeled Microplate Reader (PerkinElmer), and the signal was read with an integral time of 0.5 seconds.
as §4, §5, §6, §7

Where a name gives a salt, the structure may show the parent alone. A value given as a limit tells only on which side of the number the result lay.

Regarding `C=CC(=O)Nc1cc(Nc2nccc(-c3cn(C)c4ccccc34)n2)c(OC)cc1N(C)CCOC` [6. (HCl)n], the values for the IC50 in assay [1] and in assay [2] were over 100 nM and 4980 nM, respectively.
The corresponding values for `C=CC(=O)Nc1cc(Nc2nccc(-c3cn(C)c4ccccc34)n2)c(OC)cc1N(C)CCS(C)(=O)=O` [10. (MsOH)3] are over 100 nM and 3020 nM.
The corresponding values for `C=CC(=O)Nc1cc(Nc2nccc(-c3cn(C)c4ccccc34)n2)c(OC)cc1N(C)CCN1CCC1` [11. (MsOH)2] are 35.4 nM and 1270 nM.
For the compound `C=CC(=O)Nc1cc(Nc2nccc(-c3cn(C)c4ccccc34)n2)c(OC)cc1N(C)CCN1CCCC1` [12. (MsOH)2], the results for the IC50 in assay [1] and in assay [2] were 35.2 nM and 1720 nM, respectively.
With `C=CC(=O)Nc1cc(Nc2nccc(-c3cn(C)c4ccccc34)n2)c(OC)cc1N1CCC(N(C)C)CC1` [13. (MsOH)2], the IC50 in assay [1] was over 100 nM; in assay [2], 444 nM.
The corresponding values for `C=CC(=O)Nc1cc(Nc2nccc(-c3cn(C)c4ccccc34)n2)c(OC)cc1N1CCC(N2CCC2)CC1` [14. (MsOH)2] are over 100 nM and 481 nM.
The corresponding values for `C=CC(=O)Nc1cc(Nc2nccc(-c3cn(C)c4ccccc34)n2)c(OC)cc1N1CCC(N2CCCC2)CC1` [15. (MsOH)2] are over 100 nM and 333 nM.
The corresponding values for `C=CC(=O)Nc1cc(Nc2nccc(-c3cn(C)c4ccccc34)n2)c(OC)cc1N1CCC(OC)C1` (stereo not drawn) [17. (MsOH)2] are over 100 nM and over 10000 nM.
For the compound `C=CC(=O)Nc1cc(Nc2nccc(-c3cn(C)c4ccccc34)n2)c(OC)cc1N1CCC(N2CCC2)C1` (stereo not drawn) [18. (MsOH)3], the IC50 in assay [1] stood at 43.6 nM; in assay [2], 520 nM.
The corresponding values for `C=CC(=O)Nc1cc(Nc2nccc(-c3cn(C)c4ccccc34)n2)c(OC)cc1N1CCC(N2CCCC2)C1` (stereo not drawn) [19. MsOH] are 48.5 nM and 955 nM.
On to `C=CC(=O)Nc1cc(Nc2nccc(-c3cn(C)c4ccccc34)n2)c(OC)cc1N1CCC(N2CCN(C)CC2)C1` (stereo not drawn) [20. (MsOH)4], for which the IC50 is over 100 nM in assay [1] and 954 nM in assay [2].
The corresponding values for `C=CC(=O)Nc1cc(Nc2nccc(-c3cn(C)c4ccccc34)n2)c(OC)cc1N1CC(OC)C1` [21. (MsOH)2] are over 100 nM and over 10000 nM.
The corresponding values for `C=CC(=O)Nc1cc(Nc2nccc(-c3cn(C)c4ccccc34)n2)c(OC)cc1N1CC(N2CCN(C)CC2)C1` [24. (MsOH)3] are over 100 nM and 2580 nM.
The corresponding values for `C=CC(=O)Nc1cc(Nc2nccc(-c3cn(C)c4ccccc34)n2)c(OC)cc1N1CC(N2CCOCC2)C1` [25. (MsOH)2] are over 100 nM and 5250 nM.
For the compound `C=CC(=O)Nc1cc(Nc2nccc(-c3cn(C)c4ccccc34)n2)c(OC)cc1N1CCC(N2CCOCC2)C1` (stereo not drawn) [26. (MsOH)2], the IC50 was over 100 nM in assay [1] and 5130 nM in assay [2].
With `C=CC(=O)Nc1cc(Nc2nccc(-c3cn(C)c4ccccc34)n2)c(OC)cc1N1CCC(N2CCOCC2)CC1` [27. (MsOH)3], the IC50 is 84 nM in assay [1] and 1810 nM in assay [2].
As for `C=CC(=O)Nc1cc(Nc2nccc(-c3cn(C)c4ccccc34)n2)c(OC)cc1OCCN1CCOCC1` [30. (MsOH)2], the IC50 in assay [1] was over 100 nM; in assay [2] it was 2550 nM.
The corresponding values for `C=CC(=O)Nc1cc(Nc2nccc(-c3cn(C)c4ccccc34)n2)c(OC)cc1OCCN1CCN(C)CC1` [31. (MsOH)3] are over 100 nM and 846 nM.
The corresponding values for `C=CC(=O)Nc1cc(Nc2nccc(-c3cn(C)c4ccccc34)n2)c(OC)cc1OCCOC` [32. (MsOH)] are over 100 nM and over 10000 nM.
The corresponding values for `C=CC(=O)Nc1cc(Nc2nccc(-c3cn(C)c4ccccc34)n2)c(OC)cc1N(CCOC)CCOC` [33. HCl] are over 100 nM and 1430 nM.
In the case of `C=CC(=O)Nc1cc(Nc2nccc(-c3cn(C)c4ccccc34)n2)c(OC)cc1N1CCCC(N(C)C)C1` (stereo not drawn) [34. (MsOH)3], the IC50 in assay [1] amounted to 39.9 nM; in assay [2] it was 446 nM.
The corresponding values for `C=CC(=O)Nc1cc(Nc2nccc(N3CCCc4ccccc43)n2)c(OC)cc1N(C)CCN(C)C` [35. (MsOH)3] are 48.4 nM and 912 nM.
The corresponding values for `C=CC(=O)Nc1cc(Nc2cc(-c3cn(C)c4ccccc34)ccn2)c(OC)cc1N(C)CCN(C)C` [43. (HCl)n] are 18.1 nM and 2170 nM.
The corresponding values for `C=CS(=O)(=O)Nc1cc(Nc2nccc(-c3cn(C)c4ccccc34)n2)c(OC)cc1N(C)CCN(C)C` [45. (HCl)n] are over 100 nM and 1090 nM.
Take `C=CS(=O)(=O)Nc1cc(Nc2nccc(-c3cn(C)c4ccccc34)n2)c(OC)cc1N(C)CCN1CCCC1` [46. (MsOH)2]: the figures for the IC50 in assay [1] and in assay [2] were 155 nM and 1170 nM, respectively.
The corresponding values for `C=CC(=O)Nc1cc(Nc2nccc(-c3cn(C)c4ccccc34)n2)c(OC)cc1N(C)CCCN(C)C` [47. (MsOH)2] are 134 nM and 1620 nM.
Turning to `C=CC(=O)Nc1cc(Nc2nccc(-c3cn(C)c4ccccc34)n2)c(OC)cc1N(C)CCN(C)CCOC` [54. (HCl)n], the IC50 in assay [1] is 38.2 nM; in assay [2] it was 738 nM.
The corresponding values for `C=CC(=O)Nc1cc(Nc2nccc(-n3nc(C)c4ccccc43)n2)c(OC)cc1N(C)CCN(C)C` [55. (HCl)n] are over 100 nM and 3230 nM.
Consider `[2H]C([2H])([2H])N(CCN(C)c1cc(OC)c(Nc2nccc(N3CC(C)(C)c4ccccc43)n2)cc1NC(=O)C=C)C([2H])([2H])[2H]` [57. (HCl)n], for which the IC50 in assay [1] turned out to be 8.2 nM; in assay [3] it was 280 nM.
The corresponding values for `[2H]C([2H])([2H])N(CCN(C)c1cc(OC)c(Nc2nccc(-n3c(=O)n(C)c4ccccc43)n2)cc1NC(=O)C=C)C([2H])([2H])[2H]` [58. (HCl)n] are 1.6 nM and 116 nM.
The corresponding values for `[2H]C([2H])([2H])N(CCN(C)c1cc(OC)c(Nc2nccc(-n3c(=O)[nH]c4ccccc43)n2)cc1NC(=O)C=C)C([2H])([2H])[2H]` [61. (HCl)n] are 1.5 nM and 29 nM.
The corresponding values for `[2H]C([2H])([2H])N(CCN(C)c1cc(OC)c(Nc2nccc(N3CCc4ccccc43)n2)cc1NC(=O)C=C)C([2H])([2H])[2H]` [62. (HCl)n] are 3.2 nM and 270 nM.
For `[2H]C([2H])([2H])N(CCN(C)c1cc(OC)c(Nc2nccc(-n3cc(C)c4ccccc43)n2)cc1NC(=O)C=C)C([2H])([2H])[2H]` [63. (HCl)n], the half-inhibitory concentration (IC50) stood at 4.8 nM in assay [1] and 410 nM in assay [3].
Turning to `[2H]C([2H])([2H])N(CCN(C)c1cc(OC)c(Nc2nccc(-n3nnc4ccccc43)n2)cc1NC(=O)C=C)C([2H])([2H])[2H]` [64. (HCl)n], the IC50 in assay [1] turned out to be 6 nM; in assay [3], 310 nM.
Take `C=CC(=O)Nc1cc(Nc2nccc(-c3cn(C)c4ccccc34)n2)c(OC)cc1N1CC(N2CCCC2)C1` [Example 23]: the IC50 is 90.8 nM in assay [1] and 2280 nM in assay [2].
Regarding `C=CC(=O)Nc1cc(Nc2nccc(-c3cn(C)c4ccccc34)n2)c(OC)cc1OC1CN(C)C1` [Example 28], the IC50 is over 100 nM in assay [1] and 538 nM in assay [2].
